Experimental data reported in US9504659B2 (priority 2006, dated 2016).

Experiment: ER804057 content of the emulsion by extraction and HPLC-UV after storage
Format: physicochemical
Conditions: emulsion PIT-ER804057 at 5%; for ER804057 content in the emulsion: theoretical concentration 40 μg/ml
Protocol: The stability of this thermoreversible emulsion was evaluated after storage for 6 months at a temperature of +4° C. by verifying the ER804057 content in the emulsion and by checking the size distribution of oil droplets in the emulsion. To assay ER804057, a selective extraction of ER804057 from the emulsion was carried out, followed by analysis by high performance liquid chromatography (HPLC) coupled to UV detector equipped with […]. The ER804057 content of the emulsion to be verified was determined using a standard range containing between 5 and 25 μg/ml of ER804057. In order to compensate for the variations in extraction yields, a constant amount of an internal standard, the chemical structure of which is very similar to that of ER804057, was introduced into each sample to be assayed (including into the samples of the standard range). This internal standard was the chemical molecule called ER803022.
The sample of PIT-ER804057 at 5% to be assayed was prepared by taking an aliquot of the emulsion PIT-ER804057 at 5%, to which 10 μg of internal standard was added, and which was diluted in water for injectable preparation.
The extraction of ER804057 from the samples of the standard range or from the samples of PIT-ER804057 at 5% was carried out in the following way: The sample was solubilized with CM2:1. The two-phase system obtained was composed of a chloroform phase containing predominantly ER804057 and an aqueous phase containing the other compounds of the emulsion. The chloroform phase was recovered and evaporated under hot conditions under a stream of nitrogen. The dry extract obtained was taken up and again solubilized in the CM2:1 mixture. […] The dry extract derived from each sample was conserved at −20° C. before being analyzed by HPLC.
The dry extract of each sample was taken up with 50 μl of CM4:1, and then diluted to ½ in methanol, then to 1/10th in a mixture of 30% acetonitrile-water for injectable preparation, 20 μl of the dilution were injected into a liquid chromatography apparatus (HPLC Merck Hitachi, serie 7000) comprising a Waters XTerra™ RP8 column pre-equilibrated in a mobile phase consisting of a mixture of 80% of phase A (water for injectable preparation/ethanol 50/50 containing 2% H3PO4) and 20% of phase B (ethanol containing 2% H3PO4), ER804057 and the internal standard were eluted using a gradient of ethanol containing 2% H3PO4. At the outlet of the HPLC, the eluate meets the UV detector and the molecules are detected at the wavelength of 215 nm. […] Once the curve was established, the amount of ER804057 present in the emulsion PIT-ER804057 at 5% was then determined by measuring the ratio of the surface areas of the ER804057/internal standard peaks.

With `CCCCCCCCCCCC(=O)CC(=O)N[C@H](COCC[C@@H](CCCCCCC)OC(=O)CCCCCCCCCCC)COP(=O)(O)OCCNC(=O)NCCOP(=O)(O)OC[C@@H](COCC[C@@H](CCCCCCC)OC(=O)CCCCCCCCCCC)NC(=O)CC(=O)CCCCCCCCCCC` [ER804057, dodecanoic acid (1R,6R,22R,27R)-1,27-diheptyl-9,19-dihydroxy-9,19-dioxido-14-oxo-6,22-bis[(1,3-dioxotetradecyl)amino]-4,8,10,18,20,24-hexaoxa-13,15-diaza-9,19-diphosphaheptacosane-1,27-diyl ester] the “ER804057 content in the emulsion” value (1 month at +4° C.) was 38 µg/mL, the “ER804057 content in the emulsion” value (3 months at +4° C.) was 37 µg/mL and the “change of ER804057 concentration in the emulsion on storage” value (6 months at +4° C.) was “has not substantially varied”. The “ER804057 content in the emulsion” value (6 months at +4° C.) was 42 µg/mL.
